Data taken from article PMC4310329, “The length of a lantibiotic hinge region has profound influence on antimicrobial activity and host specificity” (Frontiers in Microbiology, 2015).

Experiments:
[1] = test system: Bacillus cereus (L′29) 16; assay: MIC in liquid culture; assay type: cell-based; details: MIC value of nisin divided by that of the analog
Method: (§1) L. lactis strains were cultured in M17 broth supplemented with 0.5% (w/v) glucose (GM17) or GM17 agar for genetic manipulation or in minimal expression medium (MEM) for protein expression at 30°C (Rink et al., [2005]). E. faecalis, S. aureus, S. pneumonia, and L. monocytogenes were grown in GM17 at 37°C or GM17 agar at different temperatures for agar diffusion assay. M. luteus was grown in Luria-Bertani broth shaken (200 rpm) at 30°C or LB agar at 20°C for agar diffusion assay. Bacillus strains were cultured in Brain Heart Infusion (BHI) shaken (200 rpm) or BHI agar at different temperatures for agar diffusion assay.
(§2) The indicator strains were cultured until OD (600 nm) reached 0.5. Before MIC value test, the culture was diluted 1000 times to make the concentration of cells around 5 × 10^5 per milliliter. The test was performed using a temperature controlled plate reader [Tecan200 (Tecan Group AG)] and 96 well plate (Greiner Bio-one). 180 μl indicator strain culture mixed with 20 μl hinge region analogs with final concentration from 0.031 μg/ml–32 μg/ml was incubated at 30°C or 37°C for 18 h. OD (600 nm) was checked every 30 min. For aerobic strains, 2 min of shaking was performed before every check. The concentration of peptide without observed growth of indicator strains was considered as the MIC value.

Bacillus cereus 4147 = assay: MIC in liquid culture; assay type: cell-based; details: MIC value of nisin divided by that of the analog
Method: as §1, §2

Bacillus cereus 4153 = assay: MIC in liquid culture; assay type: cell-based; details: MIC value of nisin divided by that of the analog
Method: as §1, §2

[2] = test system: Bacillus sporothermodurans IC4; assay: MIC in liquid culture; assay type: cell-based; details: MIC value of nisin divided by that of the analog
Method: as §1, §2

[3] = test system: Enterococcus faecalis VE14089; assay: MIC in liquid culture; assay type: cell-based; details: MIC value of nisin divided by that of the analog
Method: as §1, §2

[4] = test system: Lactococcus lactis MG1363; assay: MIC in liquid culture; assay type: cell-based; details: MIC value of nisin divided by that of the analog
Method: as §1, §2

Listeria monocytogenes = assay: MIC in liquid culture; assay type: cell-based; details: MIC value of nisin divided by that of the analog
Method: as §1, §2

Micrococcus luteus = assay: MIC in liquid culture; assay type: cell-based; details: MIC value of nisin divided by that of the analog
Method: as §1, §2

Staphylococcus aureus = assay: MIC in liquid culture; assay type: cell-based; details: MIC value of nisin divided by that of the analog
Method: as §1, §2

[5] = test system: Streptococcus pneumoniae R6; assay: MIC in liquid culture; assay type: cell-based; details: MIC value of nisin divided by that of the analog
Method: as §1, §2

L. lactis MG1363 = assay: Agar well diffusion assay; assay type: cell-based, Lactococcus lactis; details: relative to wt
Method: as §1
(§3) For the agar well diffusion assay, the same cultures as in the MIC value test were used and diluted 200 times with solid media. Identical sizes of wells (7.5 mm diameter) were made and 2 μg of hinge region analogs dissolved in 20 μl 0.05% acetic acid were added. The plates were incubated at different temperatures for at least 1 day until apparent halos appeared. For activity test at low temperature, the indicators were diluted in the same way but poured into smaller plates (52 mm diameter). The plates were incubated at 4°C overnight before the peptides were added. B. sporothermodurans IC4 and B. cereus 4153 were first incubated with the peptides at 4°C for 2 weeks then moved to 30°C and incubated overnight. The diameters of the halos were measured.
(§4) The antimicrobial activity of the hinge region analogs in solid media were tested by an agar well diffusion assay. The diameters of the halos were measured and the residual activity of the analogs were estimated according to the formula of the relationship between the concentration of nisin and the sizes of halos. We made use of the fact that the size of the halo is directly related to the log of nisin concentration. Of course this is an estimate of activity of the variants because any changes in diffusion of the variant bacteriocin or growth rates of indicator bacteria during the assay could also affect the size of the halo. (Table 5 and Supplementary Figure 1). The plates were shown in supplementary data (Supplementary Figures 2–8). […] And against L. lactis at 20°C, the inhibition zone was larger than nisin. […] The M. luteus grows quite fast at room temperature and only the +2 variant retained 55% of the activity of nisin. […]
(§5) To evaluate the activity of nisin on the agar plate, an agar well diffusion assay with gradient of nisin against Lactococcus lactis ( with two plasmids) was performed ( Supplementary Figur e 1 A). The diameter of the halos were measured (Supplementary Figure 1B). […]
(§6) the concentration of nisin is in liner relationship with diameter of the halos ( Supplementary Fi g u re 1C). According to the formula (1) , the relative activity of the peptides compared to nisin can be calculated b y the formula ( 2) .
(§7) Supplementary Figure 1. Relationship between concentration of nisin and diameter of the halos. (A) Agar well diffusion assay. Gradient concentration of nisin were made and dissolved in 30µl 0.05% acetic acid. Lactococcus lactis ( with two plasmids) was cultured overnight and diluted 250 times with GM17 agar before added to the plate. The final concentration of the cells was about 2×10^6 cells/milliliter. The plate was incubated for 1 da y. Concentrations of nisin were labeled. (B) log10 of the concentrati ons and diameters of the halo. (C) A linear curve w as made betw een t he diameters of the halo and log10s of the concentration of nisin.
(§8) (1 picture or pasted object on this page, not shown here)
(§9) Last Name a uthor 1 et al. Running Title
(§10) C = concentration of nisin d° = diameter of the halo of wild t ype […]

L. monocytogenes = assay: Agar well diffusion assay; assay type: cell-based, Listeria monocytogenes; details: estimated from halo diameter by nisin standard curve, relative to wt
Method: as §1, §3, §4, §5, §6, §7, §8, §9, §10

E. faecalis VE14089 = assay: Agar well diffusion assay; assay type: cell-based, Enterococcus faecalis; details: estimated from halo diameter by nisin standard curve, relative to wt
Method: as §1, §3, §4, §5, §6, §7, §8, §9, §10

M. luteus = assay: Agar well diffusion assay; assay type: cell-based, Micrococcus luteus; details: 20 °C; estimated from halo diameter by nisin standard curve, relative to wt
Method: as §1, §3, §4, §5, §6
as §7, with “nisin. […]” for “nisin.”

S. aureus = assay: Agar well diffusion assay; assay type: cell-based, Staphylococcus aureus; details: 20 °C; estimated from halo diameter by nisin standard curve, relative to wt
Method: as §1, §3, §4, §5, §6
as §7, with “nisin. […]” for “nisin.”

B. sporothermodurans IC4 = assay: Agar well diffusion assay; assay type: cell-based, Bacillus sporothermodurans; details: 30 °C; estimated from halo diameter by nisin standard curve, relative to wt
Method: as §1
as §3, with “B. sporothermodurans IC4 and B. cereus 4153 were first incubated with the peptides at 4°C for 2 weeks then moved to 30°C and incubated overnight.” left out
The antimicrobial activity of the hinge region analogs in solid media were tested by an agar well diffusion assay. The diameters of the halos were measured and the residual activity of the analogs were estimated according to the formula of the relationship between the concentration of nisin and the sizes of halos. […]
as §5
the concentration of nisin is in liner relationship with diameter of the halos ( Supplementary Fi g u re 1C). According to the formula (1) , the relative activity of the peptides compared to nisin can be calculated b y the formula ( 2) . […]

[6] = 20 °C, estimated from halo diameter by nisin standard curve (halo diameter vs log of nisin concentration)
[7] = 30 °C, estimated from halo diameter by nisin standard curve

Row | SMILES | Residual activity of variants compared to nisin [1] | Residual activity of variants compared to nisin (Bacillus cereus 4147) | Residual activity of variants compared to nisin (Bacillus cereus 4153) | Residual activity of variants compared to nisin [2] | Residual activity of variants compared to nisin [3] | Residual activity of variants compared to nisin [4] | Residual activity of variants compared to nisin (Listeria monocytogenes) | Residual activity of variants compared to nisin (Micrococcus luteus) | Residual activity of variants compared to nisin (Staphylococcus aureus) | Residual activity of variants compared to nisin [5] | Residual activity (L. lactis MG1363; [6]) | Residual activity (L. lactis MG1363; [7]) | Residual activity (L. monocytogenes; 20 °C) | Residual activity (L. monocytogenes; 30 °C) | Residual activity (E. faecalis VE14089; 20 °C) | Residual activity (E. faecalis VE14089; 30 °C) | Residual activity (E. faecalis VE14089; 37 °C) | Residual activity (M. luteus) | Residual activity (S. aureus) | Residual activity (B. sporothermodurans IC4)
1 | C=C(NC(=O)[C@@H](NC(=O)[C@H](Cc1c[nH]cn1)NC(=O)[C@@H](NC(=O)[C@H](CO)NC(=O)[C@@H]1CS[C@@H](C)[C@H]2NC(=O)[C@H](C)NC(=O)[C@H](NC(=O)[C@H](CCCCN)NC(=O)[C@H](CCSC)NC(=O)[C@H](CC(C)C)NC(=O)[C@@H](NC(=O)[C@@H](NC(=O)[C@H](CC(N)=O)NC(=O)[C@@H]3CS[C@@H](C)[C@@H](NC(=O)[C@H](CCCCN)NC(=O)[C@@H]4CS[C@@H](C)[C@@H](NC(=O)[C@@H]5CSC[C@@H](NC(=O)/C(=C/C)NC(=O)[C@@H](N)[C@@H](C)CC)C(=O)N[C@@H]([C@@H](C)CC)C(=O)NC(=C)C(=O)N[C@@H](CC(C)C)C(=O)N5)C(=O)N5CCC[C@H]5C(=O)NCC(=O)N4)C(=O)NCC(=O)N[C@@H](C)C(=O)N[C@@H](CC(C)C)C(=O)N[C@@H](CCSC)C(=O)NCC(=O)N3)[C@@H](C)CC)C(C)C)[C@H](C)SC[C@H](NC2=O)C(=O)N[C@@H](Cc2c[nH]cn2)C(=O)N1)[C@@H](C)CC)C(C)C)C(=O)N[C@@H](CCCCN)C(=O)O [+3] | 13% | 25% | 13% | 17% | <21% | 13% | <25% | 25% | <3% | 13% | 5% | 3% | 3% | 3% | 6% | 9% | 14% | 7% | 0% | 10%
2 | C=C(NC(=O)[C@@H](NC(=O)[C@H](Cc1c[nH]cn1)NC(=O)[C@@H](NC(=O)[C@H](CO)NC(=O)[C@@H]1CS[C@@H](C)[C@H]2NC(=O)[C@H](C)NC(=O)[C@H](NC(=O)[C@H](CCCCN)NC(=O)[C@H](CC(N)=O)NC(=O)[C@@H]3CS[C@@H](C)[C@@H](NC(=O)[C@H](CCCCN)NC(=O)[C@@H]4CS[C@@H](C)[C@@H](NC(=O)[C@@H]5CSC[C@@H](NC(=O)/C(=C/C)NC(=O)[C@@H](N)[C@@H](C)CC)C(=O)N[C@@H]([C@@H](C)CC)C(=O)NC(=C)C(=O)N[C@@H](CC(C)C)C(=O)N5)C(=O)N5CCC[C@H]5C(=O)NCC(=O)N4)C(=O)NCC(=O)N[C@@H](C)C(=O)N[C@@H](CC(C)C)C(=O)N[C@@H](CCSC)C(=O)NCC(=O)N3)[C@H](C)SC[C@H](NC2=O)C(=O)N[C@@H](Cc2c[nH]cn2)C(=O)N1)[C@@H](C)CC)C(C)C)C(=O)N[C@@H](CCCCN)C(=O)O [−1] | <13% | <13% | <13% | 50% | <6% | 3% | <25% | <25% | 3% | 25% | 33% | 17% | 19% | 29% | 21% | 72% | 140% | 0% | 16% | 522%
